The values below come from PMC10337483 (Biochemistry, 2022).

In data set [1] the test system is BV2 microglial cells stimulated with LPS. In words: IL-6 level by ELISA in BV2 microglial cells stimulated with LPS. The format is cell-based. The conditions noted are these: for effect on IL-6 level (pro-inflammatory activity): 0–5 μM, LPS-stimulated BV2, in words; for IL-6 expression (ELISA): 5 μM, LPS-stimulated BV2.
Data set [2] has the same test system. Description: IL-10 level by ELISA in BV2 microglial cells stimulated with LPS. Type of data set: cell-based. To be noted: for expression of the anti-inflammatory cytokines: 5 μM, in words; for effect on IL-10 levels: 0–5 μM, LPS-stimulated BV2, in words; for levels of IL-10 (ELISA): LPS-stimulated BV2, 5 μM implied.
Data set [3] is classed as in vivo, mouse. The conditions noted are these: for concentration of metabolite formed, detected in plasma: mice given CBG 20 mg/kg, after 0.5 h.
The conditions of data set [4]: after 0.5 h; cited from earlier work.
Data set [5] deals with BV2 microglial cells stimulated with LPS. Description: Nitric oxide level in BV2 microglial cells stimulated with LPS. Type of data set: cell-based. The conditions noted are these: highest reduction among analogs (Figure S8).
The subject of data set [6] is CYP2J2, 3A4, 2D6, 2C9 and 2C8. The format is in vitro ADME. The conditions noted are these: human.
For data set [7], the system named is CYP2C8. To be noted: human.
For data set [8], the target named is T1, CYP2D6 (Homo sapiens, UniProt P10635).
T1 sequence (P10635 whole entry): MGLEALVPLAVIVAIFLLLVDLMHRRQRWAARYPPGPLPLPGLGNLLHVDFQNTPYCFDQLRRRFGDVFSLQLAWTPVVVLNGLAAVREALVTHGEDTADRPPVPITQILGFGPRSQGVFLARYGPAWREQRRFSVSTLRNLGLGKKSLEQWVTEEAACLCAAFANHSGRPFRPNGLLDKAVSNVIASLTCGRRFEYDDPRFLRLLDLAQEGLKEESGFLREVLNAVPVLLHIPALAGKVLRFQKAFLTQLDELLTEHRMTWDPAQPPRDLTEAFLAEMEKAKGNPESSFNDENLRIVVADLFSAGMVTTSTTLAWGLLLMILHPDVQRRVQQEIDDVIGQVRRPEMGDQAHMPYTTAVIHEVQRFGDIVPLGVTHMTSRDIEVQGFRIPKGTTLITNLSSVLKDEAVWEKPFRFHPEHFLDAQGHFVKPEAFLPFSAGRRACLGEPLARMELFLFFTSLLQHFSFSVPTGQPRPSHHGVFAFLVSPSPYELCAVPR
The target in data set [9] is T1, CYP2D6. In words: biochemical.
For a further data set, the target named is CYP3A4 (Homo sapiens, UniProt P08684). Description: Spectral.
Sequence of CYP3A4 (P08684 whole entry): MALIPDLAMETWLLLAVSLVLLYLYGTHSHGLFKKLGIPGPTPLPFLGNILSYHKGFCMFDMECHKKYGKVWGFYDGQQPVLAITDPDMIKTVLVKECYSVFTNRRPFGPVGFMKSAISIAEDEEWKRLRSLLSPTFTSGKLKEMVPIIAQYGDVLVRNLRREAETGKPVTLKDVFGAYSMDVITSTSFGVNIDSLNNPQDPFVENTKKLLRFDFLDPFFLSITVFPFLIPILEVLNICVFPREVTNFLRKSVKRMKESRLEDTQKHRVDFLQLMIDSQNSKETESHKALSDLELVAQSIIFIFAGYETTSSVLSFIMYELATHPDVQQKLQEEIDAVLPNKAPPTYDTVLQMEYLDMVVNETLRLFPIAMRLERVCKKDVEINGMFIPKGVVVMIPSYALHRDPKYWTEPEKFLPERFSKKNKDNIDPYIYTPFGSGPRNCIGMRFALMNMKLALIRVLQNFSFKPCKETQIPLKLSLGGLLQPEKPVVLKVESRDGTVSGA
Data set [10] deals with CYP2C8. In words: Spectral. The conditions noted are these: presence versus absence of CBG.
Data set [11] concerns human liver microsomes (HLM). Description: CBG metabolism by human liver microsomes, targeted mass spectrometry. The format is in vitro ADME.

The structures appear in SMILES notation. “Also recorded” adds a separate entry of the source.

Turning to `CCCCCc1cc(O)c(CC(O)C(C)(O)CCC=C(C)C)c(O)c1` (stereo not shown) [2′,3′-dihydroxy-CBG, 2′,3′-dihydroxy CBG], in [1], the “effect on IL-6 level (pro-inflammatory activity)” value (“effect on IL-6 level” below) was “concentration dependent reduction in IL-6 level”. Also, in data set [2], the “expression of the anti-inflammatory cytokines” value is recorded as “maximum expression of the anti-inflammatory cytokines”.
For the compound `CCCCCc1cc(O)c(C/C=C(\C)CCC2OC2(C)C)c(O)c1` (stereo not shown) [6′,7′-epoxy-CBG], the “concentration of metabolite formed, detected in plasma” value in data set [3] came to 0.0075 µM. Further, the “effect on IL-6 level” value in [1] is “lowering in IL-6 expression”. Moreover, the “effect on IL-10 levels” value in [2] is listed as “concentration dependent increase in IL-10 levels”.
For `C=C(C)[C@@H]1CCC(C)=C[C@H]1c1c(O)cc(CCCCC)cc1O` [CBD, cannabidiol], the “level in human blood plasma” value in data set [4] is listed as ~ 0.14 μM.
As for `CCCCCc1cc(O)c(C/C=C(\C)CCC=C(C)C)c(O)c1` [CBG, Cannabigerol], in [3] (female, mouse, in vivo), the concentration at 0.5 h lay within 0.5 to 0.7 µM and the concentration at 2 h is approximately 0.05 µM. The “% NO level” value in data set [5] is reported as 64.1±5.9%. In [1], the “effect on IL-6 level” value is “concentration dependent reduction in IL-6 level” and the “IL-6 expression (ELISA)” value worked out at 414.2±75.2. Moreover, in data set [2], the “effect on IL-10 levels” value is listed as “concentration dependent increase in IL-10 levels”, the “expression of the anti-inflammatory cytokines” value is given as “maximum expression of the anti-inflammatory cytokines” and the “levels of IL-10 (ELISA)” value is listed as 236.03±12.35. In addition, the “Km for formation of cyclo-CBG, CYP2J2 relative to 2D6 and 2C8” value in data set [6] is on record as 1.5–2 times. The “Ks of CBG higher than for CYP2J2” value with CYP2C8 [7] was approximately 3 times. On CYP2D6 [8], the “Ks for CBG binding lower than for TDZ binding” value is listed as approximately 3.5 times and the “Ks of CBG higher than for CYP2J2” value is given as approximately 3 times. This compound had an inhibition constant Ki on CYP2D6 [9] of 10 to 20 µM. The Ki on CYP3A4 lay in the range of 10 to 20 µM.
Regarding `CC1=C(/C=C/C(C)=C/C=C/C(C)=C/C(=O)O)C(C)(C)CCC1` [RTA, all trans-retinoic acid], in the data set with CYP2C8 [10], the “increase of Ks on addition of RTA to CBG-bound CYP” value is recorded as ~ 1.3 times and the “increase of ΔAmax on addition of RTA to CBG-bound CYP” value is given as ~ 1.2 times.
With `CCCCCc1cc(O)c2c(c1)OC(C)(C)[C@@H]1CCC(C)=C[C@@H]21` [THC, Δ^9-tetrahydrocannabinol], the “level in human blood plasma” value in [4] is recorded as ~ 0.06 μM.
Turning to `C[C@]12CC[C@H]3[C@@H](CCC4=CC(=O)CC[C@@]43C)[C@@H]1CC[C@@H]2O` [TST, testosterone, reference compound], at CYP3A4 (direct binding, TST versus CBG), the “TST binds more strongly as compared to CBG” value was approximately 5 times.
As for `CCCCCc1cc(O)c(C/C=C(\C)CCC(O)C(C)(C)O)c(O)c1` (stereo not shown) [carmagerol, 6′,7′-dihydroxy CBG], the “% NO level” value in data set [5] turned out to be 60.0±6.03%. Further, in data set [1], the “effect on IL-6 level” value was “lowering in IL-6 expression; also recorded: highest reduction in the pro-inflammatory activity” and the “IL-6 expression (ELISA)” value worked out at 307.8±159.1. Moreover, in data set [2], the “effect on IL-10 levels” value was “concentration dependent increase in IL-10 levels” and the “levels of IL-10 (ELISA)” value is 159.5±16.7.
As for `CCCCCc1cc(O)c2c(c1)OC(C)(CCC=C(C)C)C(O)C2` (stereo not shown) [cyclo-CBG], in data set [3], the “concentration of metabolite formed, detected in plasma” value is 1.5 µM. Also, in data set [3] (plasma of CBG treated mice), the “amount of cyclo-CBG relative to 6′,7′-epoxy-CBG in plasma” value is ~ 100 times. In addition, the “amount of cyclo-CBG produced relative to 6′,7′-epoxy-CBG” value in [11] is ~ 100 fold.
Consider `CCCCCc1cc(O)c(C/C=C(\C)CC/C=C(\C)CCC=C(C)C)c(O)c1` [sCBG, sesqicannabigerol], for which, in [1], the “effect on IL-6 level” value was “concentration dependent reduction in IL-6 level”. Also, the “bioactivity compared to CBG metabolites having polar functional groups” value in data set [1] (inflammatory cytokines in BV2 model, in words) is recorded as “does not significant bioactivity”.
